≈ marks a conversion by molar mass, not a printed value.
Assays:
[1] = Compound solubility in water
[2] = target: T1, acid ceramidase (Homo sapiens, UniProt Q13510); experiment: Acid ceramidase inhibition, biochemical fluorescent assay with cell lysates overexpressing acid ceramidase, substrate Rbm14-12; details: substrate Rbm14-12 6.3 μM
T1 construct: Cell lysates overexpressing acid ceramidase were used as the enzyme source; expressed in transfected cells
T1 sequence (Q13510 22-395): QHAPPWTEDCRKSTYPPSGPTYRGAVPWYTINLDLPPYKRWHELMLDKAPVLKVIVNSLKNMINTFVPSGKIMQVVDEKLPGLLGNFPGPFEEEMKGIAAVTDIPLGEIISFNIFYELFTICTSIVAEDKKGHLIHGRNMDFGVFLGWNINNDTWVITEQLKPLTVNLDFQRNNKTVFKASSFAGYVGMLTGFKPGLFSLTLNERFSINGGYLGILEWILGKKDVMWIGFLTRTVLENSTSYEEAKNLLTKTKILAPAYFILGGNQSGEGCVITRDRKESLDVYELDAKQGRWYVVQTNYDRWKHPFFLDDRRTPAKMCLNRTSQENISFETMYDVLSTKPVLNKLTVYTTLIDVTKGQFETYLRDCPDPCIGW
Procedure, shortened: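 IC50 derived by four-parameter fitting of fluorescence (ex360 nm, em446 nm) produced after 1 hr in methanol/NaIO4/glycine stop buffer, pH 10.6. Reaction: 6.3 μM Rbm14-12, 1 hr RT, following 1 hr RT compound preincubation with 10 μg overexpressing-cell lysate protein in pH 4.5 NaAC/NaCl buffer.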

[3] = pH 4.5, 1 hr preincubation at RT

| SMILES | solubility [1] [µg/mL] | IC50 ([2]; pH 4.5) [nM] | IC50 [2, 3] [nM] |
| --- | --- | --- | --- |
| CC(C)CCNC(=O)n1cnc2c(N3CCN(CC(F)(F)F)CC3)cccc21 [Example 153, N-iso-Pentyl-4-(4-(2,2,2-trifluoroethyl)piperazin-1-yl)-1H-benzo[d]imidazole-1-carboxamide] | 10 (≈ 25.2 µM) |  | 200 to 1000 |
| O=C(NCCOc1ccccc1)n1cnc2c(N3CCN(C4COC4)CC3)cccc21 [Example 327, 4-(4-(Oxetan-3-yl)piperazin-1-yl)-N-(2-phenoxyethyl)-1H-benzo[d]imidazole-1-carboxamide] | 25 (≈ 59.3 µM) | < 200 |  |
| COc1nc2cc(N3CCC4(CC3)COC4)ccc2n1C(=O)NCCCc1ccccc1 [Example 238b, 2-methoxy-N-(3-phenylpropyl)-5-(2-oxa-7-azaspiro[3.5]nonan-7-yl)-1H-benzo[d]-imidazole-1-carboxamide] | 12 (≈ 27.6 µM) | 200 to 1000 |  |
| CN1CC2CC1CN2c1cccc2c1ncn2C(=O)NCCC1CCC(F)(F)C1 (centres unmarked) [Example 293, N-(2-(3,3-difluorocyclopentyl)ethyl)-4-(5-methyl-2,5-diazabicyclo[2.2.1]heptan-2-yl)-1H-benzo[d]imidazole-1-carboxamide] | 39 (≈ 96.7 µM) | 200 to 1000 |  |
| CN1CCC2(CC1)CN(c1cccc3c1ncn3C(=O)NCCC#Cc1ccccc1)C2 [Example 366, 4-(7-Methyl-2,7-diazaspiro[3.5]nonan-2-yl)-N-(4-phenylbut-3-yn-1-yl)-1H-benzo[d]imidazole-1-carboxamide] | 21 (≈ 49.1 µM) |  | < 200 |
| CCC#CCNC(=O)n1cnc2c(N3CCN(C)CC3)cccc21 [Example 305, 4-(4-Methylpiperazin-1-yl)-N-(pent-2-yn-1-yl)-1H-benzo[d]imidazole-1-carboxamide] | 27 (≈ 83 µM) | 200 to 1000 |  |
| N#Cc1cc(N2CCOCC2)c2ncn(C(=O)NCCCC3CC3)c2c1 [Example 178, 6-Cyano-N-(3-cyclopropylpropyl)-4-morpholino-1H-benzo[d]imidazole-1-carboxamide] | 2 (≈ 5.66 µM) | < 200 |  |
| CCCCNC(=O)n1cnc2c(C3CCN(C)CC3)cc(OC)cc21 [Example 58, N-Butyl-6-methoxy-4-(1-methylpiperidin-4-yl)-1H-benzo[d]imidazole-1-carboxamide] | 28.1 (≈ 81.6 µM) |  | 200 to 1000 |
| CC(C)CCNC(=O)n1cnc2c(N3CCN4CCCCC4C3)cccc21 (centres unmarked) [Example 198, 4-(Hexahydro-1H-pyrido[1,2-a]pyrazin-2(6H)-yl)-N-iso-pentyl-1H-benzo[d]imidazole-1-carboxamide] | 28 (≈ 75.8 µM) | 200 to 1000 |  |
| O=C(NCCCCc1ccccc1)n1cnc2ccccc21 [Example 6, N-(4-Phenylbutyl)-1H-benzo[d]imidazole-1-carboxamide] | 1 (≈ 3.41 µM) |  | < 200 |
| O=C(NCCc1ccccc1)n1c(=O)[nH]c2cccnc21 [Example 124, 2-Oxo-N-phenethyl-1H-imidazo[4,5-b]pyridine-3(2H)-carboxamide] | 4 (≈ 14.2 µM) |  | > 1000 |
| O=C(NCCCC1CC1)n1cnc2c(N3CCOCC3)cccc21 [Example 141, N-(3-Cyclopropylpropyl)-4-morpholino-1H-benzo[d]imidazole-1-carboxamide] | 15 (≈ 45.7 µM) |  | < 200 |
| CN1CCN(c2ccc3c(c2)ncn3C(=O)NCCc2ccccc2)CC1 [Example 15a, 5-(4-Methylpiperazin-1-yl)-N-phenethyl-1H-benzo[d]imidazole-1-carboxamide] | 20.4 (≈ 56.1 µM) |  | < 200 |
| CC(C)CCNC(=O)n1cnc2c(N3CCN4CCCC4C3)cccc21 (centres unmarked) [Example 158, 4-(Hexahydropyrrolo[1,2-a]pyrazin-2(1H)-yl)-N-iso-pentyl-1H-benzo[d]imidazole-1-carboxamide] | 17 (≈ 47.8 µM) |  | 200 to 1000 |
| CN1CCC2CCN(c3cccc4c3ncn4C(=O)NCCCc3ccccc3)CC21 (centres unmarked) [Example 271, 4-(1-Methyloctahydro-6H-pyrrolo[2,3-c]pyridin-6-yl)-N-(3-phenylpropyl)-1H-benzo[d]imidazole-1-carboxamide] | 22 (≈ 52.7 µM) | < 200 |  |
| CN1CCN(c2cccc3c2ncn3C(=O)NCCC#Cc2ccccc2)CC1 [Example 352, 4-(4-Methylpiperazin-1-yl)-N-(4-phenylbut-3-yn-1-yl)-1H-benzo[d]imidazole-1-carboxamide] | 2 (≈ 5.16 µM) |  | < 200 |
| CC(C)C#CCCNC(=O)n1cnc2c(N3CCN(C)CC3)cccc21 [Example 303, N-(5-Methylhex-3-yn-1-yl)-4-(4-methylpiperazin-1-yl)-1H-benzo[d]imidazole-1-carboxamide] | 28 (≈ 79.2 µM) | 200 to 1000 |  |
| CCCCNC(=O)n1c(OCC)nc2ccccc21 [Example 97, N-Butyl-2-ethoxy-1H-benzo[d]imidazole-1-carboxamide] | 10.9 (≈ 41.7 µM) |  | 200 to 1000 |
| CNC1CCN(c2cccc3c2ncn3C(=O)NCCCc2ccccc2)C1 (centres unmarked) [Example 268, 4-(3-(Methylamino)pyrrolidin-1-yl)-N-(3-phenylpropyl)-1H-benzo[d]imidazole-1-carboxamide] | 17 (≈ 45 µM) | < 200 |  |
| CC(C)CCNC(=O)n1cnc2ccccc21 [Example 107, N-iso-Pentyl-1H-benzo[d]imidazole-1-carboxamide] | 13.9 (≈ 60.1 µM) |  | < 200 |
| CN1CCN(C2CN(c3cccc4c3ncn4C(=O)NCCC3CCC(F)(F)C3)C2)CC1 (centres unmarked) [Example 318, N-(2-(3,3-Difluorocyclopentyl)ethyl)-4-(3-(4-methylpiperazin-1-yl)azetidin-1-yl)-1H-benzo[d]imidazole-1-carboxamide] | 40 (≈ 89.6 µM) | 200 to 1000 |  |

The remaining lines, values ahead:

| solubility [1] [µg/mL] | IC50 ([2]; pH 4.5) [nM] | IC50 [2, 3] [nM] | SMILES |
| --- | --- | --- | --- |
| 26 (≈ 66.4 µM) | < 200 |  | C[C@@H](CCNC(=O)n1cnc2c(N3CCN(C)CC3)cccc21)c1ccccc1 [Example 253a, (S)-4-(4-Methylpiperazin-1-yl)-N-(3-phenylbutyl)-1H-benzo[d]imidazole-1-carboxamide] |
| 25 (≈ 60.5 µM) | > 1000 |  | COc1nc2ccc(N3CCOCC3)cc2n1C(=O)NCCCc1ccc(F)nc1 [Example 232a, N-(3-(6-Fluoropyridin-3-yl)propyl)-2-methoxy-6-morpholino-1H-benzo[d]imidazole-1-carboxamide] |
| 6 (≈ 20 µM) |  | < 200 | CC(C)CNC(=O)n1cnc2cc(-c3cncs3)ccc21 [Example 126a, N-iso-Butyl-5-(thiazol-5-yl)-1H-benzo[d]imidazole-1-carboxamide] |
| 35 (≈ 72.8 µM) | 200 to 1000 |  | COc1nc2cc(N3CCN(C4CN(C)C4)CC3)c(F)cc2n1C(=O)NCCCc1ccccc1 [Example 319a, 6-Fluoro-2-methoxy-5-(4-(1-methylazetidin-3-yl)piperazin-1-yl)-N-(3-phenylpropyl)-1H-benzo[d]imidazole-1-carboxamide] |
| 22.2 (≈ 68.2 µM) |  | 200 to 1000 | COc1cc2c(cc1-c1cncnc1)ncn2C(=O)NCC(C)C [Example 79a, N-iso-Butyl-6-methoxy-5-(pyrimidin-5-yl)-1H-benzo[d]imidazole-1-carboxamide] |
| 14 (≈ 46.6 µM) |  | 200 to 1000 | CC(C)CNC(=O)n1cnc2ccc(-c3cncs3)cc21 [Example 126b, N-iso-butyl-6-(thiazol-5-yl)-1H-benzo[d]imidazole-1-carboxamide] |
| 17 (≈ 43.1 µM) |  | < 200 | COc1nc2ccc(N3CCOCC3)cc2n1C(=O)NCCCc1ccccc1 [Example 134a, 2-Methoxy-6-morpholino-N-(3-phenylpropyl)-1H-benzo[d]imidazole-1-carboxamide] |
